The numbers were not newly measured in patent US20220409591A1, “Pharmaceutical Formulations for Managing Uric Acid Content in Human Body” (ZYCIE TECHNOLEGAL LLP, priority 2019, published 2022), which cites them from elsewhere.

The conditions of data set [1]: known.

Molecules are shown by their SMILES.

As to `Cc1nc(-c2ccc(OCC(C)C)c(C#N)c2)sc1C(=O)O` [febuxostat, 2-[3-cyano-4-(2-methylpropoxy)phenyl]-4-methylthiazole-5-carboxylic acid], the “BCS class (poorly water-soluble drug)” value was “BCS Class II”. For the same molecule, in data set [1], the bioavailability entry was “more than 80%” and the “mean terminal elimination half-life” value was 5 to 8 h.
